The subject of series [1] is PH-domain of Tiam1. The experiment in a line: SPR binding to expressed PH-domain of Tiam1. The protocol: In embodiments, the binding of identified compounds to the crystal structures of other PH-domain signaling proteins, AKT, PDPK1, Btk, and Tiam1 can be predicted. In such embodiments, the Kds exceed about 100 μM. In other embodiments, SPR can measure the binding of identified compounds to the expressed PH-domains of AKT, PDPK1 and Tiam1. […] Thus, the identified compounds appear have, at least, about 50 to about 100 fold selectivity for CNKSR1 compared to the other PH-domains studied.
A commercially available docking package, GOLD (GOLD [3.2], CCDC: Cambridge, UK, 2007) was used to evaluate the docking of compounds 1-7 into the binding pocket, see e.g. Table 5. Other docking was performed using modeling algorithms with state-of-the-art commercial drug discovery software (Schrodinger suite). GLIDE was chosen as the docking algorithm used to select and optimize compounds, providing a GlideScore as a rough estimate of binding affinity that was used to rank and select the best compounds. Additionally, ligand-based approaches provided an alternative to structure based drug discovery. Ligand-based virtual screening methodologies can take into account shape and electrostatics (like ROCS) and the pharmacophoric features (acceptor, donor, hydrophobic, aromatic, etc.) of its functional groups. […]

Series [2] has as its target T1, rHuman carboxyesterase 2 (Homo sapiens, UniProt O00748).
T1 sequence (O00748 27-559): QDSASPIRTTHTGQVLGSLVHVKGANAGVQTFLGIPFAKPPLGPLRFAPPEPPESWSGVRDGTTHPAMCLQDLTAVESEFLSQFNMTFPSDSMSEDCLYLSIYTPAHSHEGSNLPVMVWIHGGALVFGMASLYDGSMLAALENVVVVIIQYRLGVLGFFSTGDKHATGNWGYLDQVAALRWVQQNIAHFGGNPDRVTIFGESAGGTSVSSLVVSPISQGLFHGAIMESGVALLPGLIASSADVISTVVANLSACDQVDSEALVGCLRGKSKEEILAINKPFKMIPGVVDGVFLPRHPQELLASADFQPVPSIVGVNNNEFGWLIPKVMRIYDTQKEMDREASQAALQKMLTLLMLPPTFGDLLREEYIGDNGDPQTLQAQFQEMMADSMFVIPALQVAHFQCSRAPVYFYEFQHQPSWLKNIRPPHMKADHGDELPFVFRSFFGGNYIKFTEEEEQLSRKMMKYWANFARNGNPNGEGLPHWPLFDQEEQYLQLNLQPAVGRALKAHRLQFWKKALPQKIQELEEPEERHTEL
The experiment in a line: Stability with carboxyesterase 2. It counts as in vitro ADME. The settings on record: rHuman carboxyesterase 2 24 U/ml, pH 7.4, 37° C.

A short description of series [3]: Mouse pharmacokinetics (iv). In kind it is in vivo.
Series [4] is described as follows: Stability in biological media: human plasma. It counts as in vitro ADME. The settings on record: 50 μg/ml, 37° C.

Consider one compound from US9340532B2, “Methods and compositions for inhibiting CNKSR1” (PHUSIS THERAPEUTICS, INC., priority 2012, dated 2016).

In the case of `CCOC(=O)Cc1nn(Cc2nc(-c3ccc(C)cc3)cs2)c(=O)c2ccccc12` [Compound 7], the “SPR binding to PH-domain of Tiam1” value in series [1] is recorded as “No measurable binding”. Moreover, the values for the Half life in series [2], in series [4] and in series [4] (listed as #7) were 1.65 h, “stable” and “completely stable”, respectively. Besides, the t1/2β in series [3] came out at 3 UN min.
